Experimental data taken from patent US10590100B2, “Benzofuran derivatives for the treatment of CNS and other disorders” (WARNER BABCOCK INSTITUTE FOR GREEN CHEMISTRY, priority 2015, dated 2020).

Experiments:
Assay type in all cases: biochemical
[1] = biological target: T1, zinc-induced Aβ42 aggregates (Homo sapiens, UniProt P05067); experiment: Bis-ANS fluorescence assay of disaggregation of zinc-induced Aβ42 aggregates; conditions: for EC50: Aβ42 15 μM, bis-ANS 15 μM, Tris-buffered saline, with 15 μM Zn2+
T1 construct: 15 μM Aβ42 peptide in TrisHCl—NaCl buffer
T1 sequence (P05067 672-713 limits assumed): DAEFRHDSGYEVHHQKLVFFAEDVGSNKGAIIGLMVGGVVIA
Method: Bis-ANS was used as a fluorescent marker for Aβ42 aggregation and disaggregation so as to determine the efficacy, EC50, of each test compound in the presence or absence of zinc(II). Baseline fluorescence was established by monitoring the fluorescence of 15 μM bis-ANS in a TrisHCl-NaCl buffer (TrisHCl-NaCl buffer: 0.50 mM TrisHCl, 1.50 mM NaCl, pH 7.4) that contains 15 μM Aβ42. After 5 minutes, Zn(II) (as zinc(II) sulfate, 15 μM final concentration) was added to the Aβ42 solution, and the fluorescence intensity monitored for 24-40 minutes. Fluorescence increases following the addition of Zn(II) during the aggregation period. After the aggregation period, varying concentrations (60, 15, 3.75, 0.938, 0.234, or 0 μM final concentration) of a test compound were added, and the fluorescence intensity again monitored until it plateaus, typically 20-24 min. […] Fluorescence intensities were determined at 390 nm excitation wavelength/490 nm emission wavelength with a 475 nm cutoff. […] The responses I0-If, were calculated as the difference in the final fluorescent intensity If, c at the end of the assay for each concentration as compared to the final intensity I0 determined for the sample with no added derivative. The responses were normalized to the maximum response […] which is the final fluorescent intensity of the sample containing 60 μM test compound, Normalized response=(I0-If)/(I0-[…]). The fluorescent intensities were then fit to a 4-parameter sigmoidal logistic function to determine EC50. In the presence of soluble Aβ42, zinc(II) induces aggregation within milliseconds. This aggregation is detected by an increase in bis-ANS fluorescence. Disaggregation of zinc-dependent aggregates can be detected by a decrease in the fluorescence of bis-ANS in the assay. FIG. 1 depicts the zinc(II) induced Aβ42 aggregation and the disaggregation by BC-147 of the zinc-induced aggregates, measured by bis-ANS fluorescence assay.

[2] = biological target: T2, zinc-independent Aβ42 aggregates (Homo sapiens, UniProt P05067); experiment: Bis-ANS fluorescence assay of disaggregation of zinc-independent Aβ42 aggregates; conditions: for EC50: Aβ42 15 μM, bis-ANS 15 μM, Tris-buffered saline, without Zn2+; for Change in bis-ANS fluorescence after addition of compound to zinc-independent Aβ42 aggregates: 15 μM Aβ42, no Zn2+, compound at 60.0 to 0.234 μM (FIG. 2)
T2 construct: 15 μM Aβ42 peptide in TrisHCl—NaCl buffer
T2 sequence (P05067 672-713 limits assumed): as above
Method: Bis-ANS was used as a fluorescent marker for Aβ42 aggregation and disaggregation so as to determine the efficacy, EC50, of each test compound in the presence or absence of zinc(II). Baseline fluorescence was established by monitoring the fluorescence of 15 μM bis-ANS in a TrisHCl-NaCl buffer (TrisHCl-NaCl buffer: 0.50 mM TrisHCl, 1.50 mM NaCl, pH 7.4) that contains 15 μM Aβ42. After 5 minutes, Zn(II) (as zinc(II) sulfate, 15 μM final concentration) was added to the Aβ42 solution, and the fluorescence intensity monitored for 24-40 minutes. Fluorescence increases following the addition of Zn(II) during the aggregation period. After the aggregation period, varying concentrations (60, 15, 3.75, 0.938, 0.234, or 0 μM final concentration) of a test compound were added, and the fluorescence intensity again monitored until it plateaus, typically 20-24 min. […] Fluorescence intensities were determined at 390 nm excitation wavelength/490 nm emission wavelength with a 475 nm cutoff. […] The responses I0-If, were calculated as the difference in the final fluorescent intensity If, c at the end of the assay for each concentration as compared to the final intensity I0 determined for the sample with no added derivative. The responses were normalized to the maximum response […] which is the final fluorescent intensity of the sample containing 60 μM test compound, Normalized response=(I0-If)/(I0-[…]). The fluorescent intensities were then fit to a 4-parameter sigmoidal logistic function to determine EC50. A representative example of disaggregation of spontaneously formed, zinc-independent Aβ42 aggregates by a test compound, BC-147, is given in FIG. 2. In the absence of zinc(II), soluble Aβ42 undergoes zinc-independent aggregation more slowly than aggregation in the presence of zinc(II). This spontaneous, zinc-independent aggregation of Aβ42 is detected by an increase in bis-ANS fluorescence. […] FIG. 2 depicts the disaggregation by BC-147 of the spontaneously formed, zinc-independent Aβ42 aggregates.

amylin aggregates = biological target: T3, amylin aggregates (Homo sapiens, UniProt P10997); experiment: Bis-ANS fluorescence assay of disaggregation of amylin aggregates; conditions: 15 μM amylin; for EC50: bis-ANS 15 μM, Tris-buffered saline, compound added after 24 hr aggregation
T3 construct: Amylin (15 μM) in TrisHCl—NaCl buffer was allowed to aggregate for 24 hr
T3 sequence (P10997 34-70 limits assumed): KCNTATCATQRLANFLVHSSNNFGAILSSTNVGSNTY
Method: Amylin (15 μM) in TrisHCl—NaCl buffer was allowed to aggregate for 24 hr, while monitoring the fluorescence of bis-ANS (15 μM) as a marker of amylin aggregation. Typically, the fluorescence increases during the aggregation period. After the aggregation period, varying concentrations (60, 15, 3.75, 0.938, 0.234, or 0 μM final concentration) of a test compound were then added to the sample, and the fluorescence intensity monitored until it plateaus, typically an additional 20-24 hr. Controls were simultaneously run in which the test compound was added to a sample that contained Bis-ANS but no amylin so as to determine any interfering intrinsic fluorescence of the test compound itself (see Table 1).
A series of assays was also carried out so as to determine the EC50 for EGCG, by addition of 60, 15, 3.75, 0.938, 0.234, or 0 μM EGCG after 24 hours, similarly to the methods used to assay the test compounds.

| Structure (SMILES) | EC50 [1] [nM] | EC50 [2] [nM] | EC50 (amylin aggregates) [nM] | Change in bis-ANS fluorescence after addition of compound to zinc-induced Aβ42 aggregates ([1]; 15 μM Aβ42, 15 μM Zn2+, compound at 60.0, 15.0, 3.75, 0.938 or 0.234 μM (FIG. 1)) | Change in bis-ANS fluorescence after addition of compound to zinc-independent Aβ42 aggregates [2] | Change in bis-ANS fluorescence after addition of compound to amylin aggregates (amylin aggregates; compound at 60.0, 15.0, 3.75, 0.938 or 0.234 μM added at about 1440 min (FIG. 5)) |
| --- | --- | --- | --- | --- | --- | --- |
| N#CC(=Cc1cc2ccc(N(c3ccccc3)c3ccccc3)cc2o1)C(=O)O [BC-146, 2-cyano-3-(6-(diphenylamino)benzofuran-2-yl)acrylic acid] | 540 | 4900 | 520 |  |  |  |
| NC(=O)C(=Cc1ccc2cc(-c3ccc(N(c4ccccc4)c4ccccc4)cc3)oc2c1)C(N)=O [BC-155, 2-((2-(4-(diphenylamino)phenyl)benzofuran-6-yl)methylene)malonamide] | 1090 | 460 | 180 |  |  |  |
| COc1ccc(N(c2ccc(OC)cc2)c2ccc(-c3cc4ccc(C=C(C#N)C(=O)O)cc4o3)cc2)cc1 [BC-156, 3-(2-(4-(bis(4-methoxyphenyl)amino)phenyl)benzofuran-6-yl)-2-cyanoacrylic acid] | 1710 | 3010 | 310 |  |  |  |
| CC(C)(C)c1ccc(N(c2ccc(-c3cc4ccc(C=C(C#N)C(=O)O)cc4o3)cc2)c2ccc(C(C)(C)C)cc2)cc1 [BC-158, 3-(2-(4-(bis(4-(tert-butyl)phenyl)amino)phenyl)benzofuran-6-yl)-2-cyanoacrylic acid] |  |  | 1730 |  |  | decrease in bis-ANS fluorescence |
| N#CC(=Cc1ccc2cc(-c3ccc(N(c4cccnc4)c4cccnc4)cc3)oc2c1)C(=O)O [BC-159, 2-cyano-3-(2-(4-(di(pyridin-3-yl)amino)phenyl)benzofuran-6-yl)acrylic acid] | 2220 | 5590 | 1930 |  |  |  |
| N#CC(=Cc1ccc2cc(-c3ccc(N(c4ccccc4)c4ccccc4)cc3)oc2c1)C(=O)NCc1ccccn1 [BC-163, 2-cyano-3-(2-(4-(diphenylamino)phenyl)benzofuran-6-yl)-N-(pyridin-2-ylmethyl)acrylamide] | 2230 | 1760 | 1830 |  |  |  |
| N#CC(=Cc1ccc2cc(-c3ccc(N4CCCCC4)cc3)oc2c1)C(=O)O [BC-166, 2-cyano-3-(2-(4-(piperidin-1-yl)phenyl)benzofuran-6-yl)acrylic acid] |  |  | 610 |  |  |  |
| N#CC(=Cc1ccc2cc(-c3ccc(N4CCOCC4)cc3)oc2c1)C(=O)O [BC-169, 2-cyano-3-(2-(4-morpholinophenyl)benzofuran-6-yl)acrylic acid] |  |  | 840 |  |  |  |
| CCN(CC)c1ccc(-c2cc3ccc(C=C(C#N)C(=O)O)cc3o2)cc1 [BC-173, 2-cyano-3-(2-(4-(diethylamino)phenyl)benzofuran-6-yl)acrylic acid] |  |  | 210 |  |  |  |
| CN(c1ccccc1)c1ccc(-c2cc3ccc(C=C(C#N)C(=O)O)cc3o2)cc1 [BC-175, 2-cyano-3-(2-(4-(methyl(phenyl)amino)phenyl)benzofuran-6-yl)acrylic acid] |  |  | 140 |  |  |  |
| O=C(O)CN(CCN(CC(=O)O)CC(=O)O)CC(=O)O [EDTA, reference compound] | 46100 |  |  |  | no effect |  |
| O=C(O[C@@H]1Cc2c(O)cc(O)cc2O[C@@H]1c1cc(O)c(O)c(O)c1)c1cc(O)c(O)c(O)c1 [EGCG, Epigallocatechin gallate, reference compound] |  |  | 860 |  |  |  |

Second part, the compound after the results:

| EC50 [1] [nM] | EC50 [2] [nM] | EC50 (amylin aggregates) [nM] | Change in bis-ANS fluorescence after addition of compound to zinc-induced Aβ42 aggregates ([1]; 15 μM Aβ42, 15 μM Zn2+, compound at 60.0, 15.0, 3.75, 0.938 or 0.234 μM (FIG. 1)) | Change in bis-ANS fluorescence after addition of compound to zinc-independent Aβ42 aggregates [2] | Change in bis-ANS fluorescence after addition of compound to amylin aggregates (amylin aggregates; compound at 60.0, 15.0, 3.75, 0.938 or 0.234 μM added at about 1440 min (FIG. 5)) | Structure (SMILES) |
| --- | --- | --- | --- | --- | --- | --- |
| 3760 | 11500 | 190 | decrease in bis-ANS fluorescence | decrease in bis-ANS fluorescence |  | N#CC(=Cc1ccc(-c2cc3ccc(N(c4ccccc4)c4ccccc4)cc3o2)cc1)C(=O)O [BC-147, 2-cyano-3-(4-(6-(diphenylamino)benzofuran-2-yl)phenyl)acrylic acid] |
| 660 | 500 | 150 |  |  |  | N#CC(=Cc1ccc2cc(-c3ccc(N(c4ccccc4)c4ccccc4)cc3)oc2c1)C(=O)O [BC-149, 2-cyano-3-(2-(4-(diphenylamino)phenyl)benzofuran-6-yl)acrylic acid] |
| 4930 | 610 | 460 |  |  |  | N#CC(=Cc1ccc2oc(-c3ccc(N(c4ccccc4)c4ccccc4)cc3)cc2c1)C(=O)O [BC-151, 2-cyano-3-(2-(4-(diphenylamino)phenyl)benzofuran-5-yl)acrylic acid] |
| 2700 | 1110 | 800 |  |  |  | N#CC(=Cc1ccc2cc(-c3ccc(N(c4ccccc4)c4ccccc4)cc3)oc2c1)C(N)=O [BC-152, 2-cyano-3-(2-(4-(diphenylamino)phenyl)benzofuran-6-yl)acrylamide] |
|  |  | 2090 |  |  |  | N#CC(C#N)=Cc1ccc2cc(-c3ccc(N(c4ccccc4)c4ccccc4)cc3)oc2c1 [BC-154, 2-((2-(4-(diphenylamino)phenyl)benzofuran-6-yl)methylene)malononitrile] |
| 4120 | 3220 | 2540 |  |  |  | COC(=O)C(C#N)=Cc1ccc2cc(-c3ccc(N(c4ccccc4)c4ccccc4)cc3)oc2c1 [BC-161, methyl 2-cyano-3-(2-(4-(diphenylamino)phenyl)benzofuran-6-yl)acrylate] |
